pIC50: −log10 of the molar value.
Target: EGFR (UniProt P00533)
Sequence (P00533 whole entry, looked up): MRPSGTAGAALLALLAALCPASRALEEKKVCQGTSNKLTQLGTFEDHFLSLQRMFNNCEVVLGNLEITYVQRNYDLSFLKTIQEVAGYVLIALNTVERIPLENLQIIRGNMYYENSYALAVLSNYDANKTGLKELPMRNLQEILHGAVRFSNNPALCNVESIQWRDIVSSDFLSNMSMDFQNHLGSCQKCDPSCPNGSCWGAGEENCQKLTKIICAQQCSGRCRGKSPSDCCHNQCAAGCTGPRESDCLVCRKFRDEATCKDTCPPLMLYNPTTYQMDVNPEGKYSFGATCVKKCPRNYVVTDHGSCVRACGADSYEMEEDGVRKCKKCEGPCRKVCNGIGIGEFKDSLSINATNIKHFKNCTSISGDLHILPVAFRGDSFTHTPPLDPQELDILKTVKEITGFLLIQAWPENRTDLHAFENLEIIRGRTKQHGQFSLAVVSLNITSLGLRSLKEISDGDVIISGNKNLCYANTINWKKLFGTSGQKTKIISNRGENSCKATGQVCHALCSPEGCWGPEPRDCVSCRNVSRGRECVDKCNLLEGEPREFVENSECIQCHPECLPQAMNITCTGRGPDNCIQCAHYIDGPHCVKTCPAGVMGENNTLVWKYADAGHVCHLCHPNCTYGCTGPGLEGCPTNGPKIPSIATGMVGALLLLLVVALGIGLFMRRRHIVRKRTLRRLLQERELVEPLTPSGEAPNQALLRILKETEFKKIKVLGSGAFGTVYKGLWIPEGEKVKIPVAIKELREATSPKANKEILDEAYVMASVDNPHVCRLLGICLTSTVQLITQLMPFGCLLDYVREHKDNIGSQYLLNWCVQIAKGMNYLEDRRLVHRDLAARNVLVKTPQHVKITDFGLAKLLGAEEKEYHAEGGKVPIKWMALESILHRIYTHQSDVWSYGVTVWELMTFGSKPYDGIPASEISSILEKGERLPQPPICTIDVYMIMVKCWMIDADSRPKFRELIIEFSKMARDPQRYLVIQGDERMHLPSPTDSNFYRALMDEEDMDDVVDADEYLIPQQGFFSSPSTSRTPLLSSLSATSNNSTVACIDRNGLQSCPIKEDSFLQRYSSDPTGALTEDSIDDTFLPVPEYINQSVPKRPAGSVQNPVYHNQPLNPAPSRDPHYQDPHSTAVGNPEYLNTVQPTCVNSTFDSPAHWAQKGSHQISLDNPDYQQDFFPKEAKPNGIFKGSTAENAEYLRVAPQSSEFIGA

First: COc1cccc(Sc2ncnc3cc(OC)c(OC)cc23)c1
Second: COc1cc2ncnc(Sc3cccc(Cl)c3)c2cc1OC
The pIC50 of the first is 1.30 log units lower: 5.70 for the first, 7.00 for the second.

`COc1cc2ncnc(N(C)c3ccccc3)c2cc1OC` and `COc1cc2ncnc(Cc3ccccc3)c2cc1OC` cannot be ordered by pIC50: 6.70 for the first, no less than 6.30 for the second.

`COc1cc2ncnc(NC3CCCCC3)c2cc1OC` and `COc1cc2ncnc(Nc3ccccc3Cl)c2cc1OC` cannot be ordered by pIC50: greater than 6.00 for the first, 7.30 for the second.

First: Clc1cccc(Nc2ncnc3ccccc23)c1
Second: COc1cc2ncnc(Nc3cccc4ccccc34)c2cc1OC
The pIC50 of the first is lower: 7.00 to 7.30 for the first, 8.00 for the second. The second is the more potent here.

First: COc1cc2ncnc(Nc3ccc(OC(C)C)cc3)c2cc1OC
Second: COc1cccc(Nc2ncnc3cc(OC)c(OC)cc23)c1
The pIC50 of the first is 2.00 log units lower: 5.30 for the first, 7.30 for the second.

Compared with `COc1cc2ncnc(Nc3cc(Cl)c(Cl)c(Cl)c3)c2cc1OC`, `COc1cc2ncnc(Nc3cccc(C#N)c3)c2cc1OC` is 1.00 log units lower in pIC50: 6.00 for the first, 5.00 for the second.

Compared with `COc1cc2ncnc(Nc3ccc4ccccc4c3)c2cc1OC`, `COc1ccc2ncnc(Nc3cc(OC)c(OC)c(OC)c3)c2c1` is 2.00 log units lower in pIC50: 7.30 for the first, 5.30 for the second. The first is the more potent here.

— the Kinase Knowledgebase extract (Sharma et al. 2016)
